This note sets out measurements from ChEMBL document CHEMBL6134817, “Novel gut-restricted bivalent agonists targeting mucosal 5-HT4R: Design, synthesis, and biological evaluation” (Eur J Med Chem, 2025).

The target of data set [1] is T1, 5-hydroxytryptamine receptor 4 (Homo sapiens, UniProt Q13639). The experiment in a line: Agonist activity at full-length human 5-HT4R stably expressed in HEK293 cells assessed as increase in intracellular cAMP level incubated for 30 mins under dark condition by reporter gene assay. Type of data set: functional, cell-based. In general terms: Cyclic AMP is a second messenger, typically raised through Gs and lowered through Gi signalling.
T1 sequence (Q13639 whole entry): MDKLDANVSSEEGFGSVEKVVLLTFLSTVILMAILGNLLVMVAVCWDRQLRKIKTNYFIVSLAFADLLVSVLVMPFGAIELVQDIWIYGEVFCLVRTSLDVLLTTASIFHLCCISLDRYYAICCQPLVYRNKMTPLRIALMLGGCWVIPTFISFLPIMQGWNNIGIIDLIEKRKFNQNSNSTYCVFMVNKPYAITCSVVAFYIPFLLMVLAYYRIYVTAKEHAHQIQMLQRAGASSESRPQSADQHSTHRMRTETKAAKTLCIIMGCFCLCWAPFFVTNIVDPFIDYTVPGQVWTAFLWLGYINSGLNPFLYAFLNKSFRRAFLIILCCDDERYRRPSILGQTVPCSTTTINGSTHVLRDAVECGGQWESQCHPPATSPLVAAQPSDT

Data set [2] deals with T1, 5-hydroxytryptamine receptor 4. The experiment in a line: Agonist activity at full-length human 5-HT4R stably expressed in HEK293 cells assessed as increase in intracellular cAMP level incubated for 30 mins under dark condition by reporter gene assay relative to control. Type of data set: functional, cell-based. To be noted: filed as agonist.
Data set [3] shares this target. The experiment in a line: Displacement of [3H]-GR113808 from full-length human 5-HT4R stably expressed in HEK293 cell membrane by MicroBeta2 Reader analysis. Type of data set: cell membranes. A general note: Displacement assays read how much labelled ligand stays bound in the presence of the test substance.
For data set [4], the target named is T2, 5-hydroxytryptamine receptor 1A (Homo sapiens, UniProt P08908).
T2 sequence (P08908 whole entry): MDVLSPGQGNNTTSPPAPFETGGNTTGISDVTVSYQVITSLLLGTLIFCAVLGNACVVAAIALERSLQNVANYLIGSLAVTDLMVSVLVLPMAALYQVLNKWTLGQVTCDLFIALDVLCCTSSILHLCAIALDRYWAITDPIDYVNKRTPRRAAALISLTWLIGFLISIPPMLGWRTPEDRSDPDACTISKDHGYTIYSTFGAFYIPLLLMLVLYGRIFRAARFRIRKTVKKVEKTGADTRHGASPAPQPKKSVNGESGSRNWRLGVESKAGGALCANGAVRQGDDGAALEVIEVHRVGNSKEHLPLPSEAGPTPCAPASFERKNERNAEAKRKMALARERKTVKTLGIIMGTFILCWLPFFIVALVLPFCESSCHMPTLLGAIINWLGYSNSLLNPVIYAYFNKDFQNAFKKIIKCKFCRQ
The experiment in a line: Inhibition of 5-HT1AR (unknown origin).

In data set [5] the target is 5-hydroxytryptamine receptor 1B (Homo sapiens, UniProt P28222). The experiment in a line: Inhibition of 5-HT1BR (unknown origin).
Chain of 5-hydroxytryptamine receptor 1B (P28222 whole entry): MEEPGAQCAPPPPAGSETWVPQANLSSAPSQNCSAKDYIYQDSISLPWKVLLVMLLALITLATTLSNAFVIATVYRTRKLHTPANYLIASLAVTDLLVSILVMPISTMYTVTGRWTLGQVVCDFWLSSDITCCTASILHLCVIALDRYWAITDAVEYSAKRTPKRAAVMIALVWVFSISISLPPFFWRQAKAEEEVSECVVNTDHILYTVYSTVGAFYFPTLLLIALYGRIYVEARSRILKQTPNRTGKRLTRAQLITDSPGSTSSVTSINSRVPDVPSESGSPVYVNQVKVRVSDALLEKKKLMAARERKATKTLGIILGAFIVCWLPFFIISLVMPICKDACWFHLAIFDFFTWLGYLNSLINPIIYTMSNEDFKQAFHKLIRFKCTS
Data set [6] has as its target 5-hydroxytryptamine receptor 2A (Homo sapiens, UniProt P28223). Briefly: Inhibition of 5-HT2AR (unknown origin).
For data set [7], the target named is 5-hydroxytryptamine receptor 2B (Homo sapiens, UniProt P41595). The experiment in a line: Inhibition of 5-HT2BR (unknown origin).
Chain of 5-hydroxytryptamine receptor 2B (P41595 whole entry): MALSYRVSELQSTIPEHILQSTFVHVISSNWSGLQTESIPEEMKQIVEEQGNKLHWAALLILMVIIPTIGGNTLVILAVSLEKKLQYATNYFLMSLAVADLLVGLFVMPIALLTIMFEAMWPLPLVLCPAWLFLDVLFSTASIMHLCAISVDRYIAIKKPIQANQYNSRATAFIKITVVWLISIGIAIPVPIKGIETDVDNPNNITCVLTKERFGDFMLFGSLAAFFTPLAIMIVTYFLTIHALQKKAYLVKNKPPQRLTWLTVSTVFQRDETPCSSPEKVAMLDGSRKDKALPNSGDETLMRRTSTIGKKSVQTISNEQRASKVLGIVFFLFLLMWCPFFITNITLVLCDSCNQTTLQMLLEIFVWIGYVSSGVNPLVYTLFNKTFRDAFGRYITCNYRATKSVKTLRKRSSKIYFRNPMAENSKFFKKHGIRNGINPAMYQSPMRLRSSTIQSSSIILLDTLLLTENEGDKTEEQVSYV
The target in data set [8] is T3, 5-hydroxytryptamine receptor 2C (Homo sapiens, UniProt P28335).
T3 sequence (P28335 whole entry): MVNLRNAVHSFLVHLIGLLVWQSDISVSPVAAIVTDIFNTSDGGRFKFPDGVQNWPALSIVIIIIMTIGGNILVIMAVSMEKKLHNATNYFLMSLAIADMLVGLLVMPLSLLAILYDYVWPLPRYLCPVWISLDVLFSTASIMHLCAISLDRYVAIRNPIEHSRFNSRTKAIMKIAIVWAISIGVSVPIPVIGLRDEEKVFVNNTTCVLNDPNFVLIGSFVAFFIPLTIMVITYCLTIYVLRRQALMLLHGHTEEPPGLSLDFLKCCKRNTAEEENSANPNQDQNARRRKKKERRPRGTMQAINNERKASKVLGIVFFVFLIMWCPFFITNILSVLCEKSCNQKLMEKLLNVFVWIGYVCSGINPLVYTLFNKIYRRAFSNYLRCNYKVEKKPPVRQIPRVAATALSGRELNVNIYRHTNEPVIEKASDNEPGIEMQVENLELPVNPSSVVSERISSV
Briefly: Inhibition of 5-HT2CR (unknown origin).

Data set [9] concerns the target Serotonin 3 (5-HT3) receptor. The experiment in a line: Inhibition of 5-HT3R (unknown origin). Type of data set: protein-complex assay, Homo sapiens.
The target in data set [10] is T1, 5-hydroxytryptamine receptor 4. The experiment in a line: Inhibition of 5-HT4R (unknown origin).
Data set [11] addresses 5-hydroxytryptamine receptor 5A (Homo sapiens, UniProt P47898). Briefly: Inhibition of 5-HT5R (unknown origin).
For data set [12], the target named is 5-hydroxytryptamine receptor 6 (Homo sapiens, UniProt P50406). The experiment in a line: Inhibition of 5-HT6R (unknown origin).
Chain of 5-hydroxytryptamine receptor 6 (P50406 whole entry): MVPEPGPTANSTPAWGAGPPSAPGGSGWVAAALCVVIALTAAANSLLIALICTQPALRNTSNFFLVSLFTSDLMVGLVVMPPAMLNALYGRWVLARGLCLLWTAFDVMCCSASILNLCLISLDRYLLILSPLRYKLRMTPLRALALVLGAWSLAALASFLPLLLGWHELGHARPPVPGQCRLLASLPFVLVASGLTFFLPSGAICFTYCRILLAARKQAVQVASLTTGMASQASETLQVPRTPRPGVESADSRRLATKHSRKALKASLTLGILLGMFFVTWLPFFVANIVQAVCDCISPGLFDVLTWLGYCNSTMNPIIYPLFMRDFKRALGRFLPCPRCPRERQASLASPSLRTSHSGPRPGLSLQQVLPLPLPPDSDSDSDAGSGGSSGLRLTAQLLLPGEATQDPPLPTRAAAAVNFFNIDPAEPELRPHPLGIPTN
Data set [13] has as its target 5-hydroxytryptamine receptor 7 (Homo sapiens, UniProt P34969). The experiment in a line: Inhibition of 5-HT7R (unknown origin).
Data set [14] can be described thus: Apparent permeability coefficient of compound at 10 uM incubated for 4 hrs by PAMPA. In kind it is ADME. On the technique in general: The PAMPA barrier holds no transporters, so it reflects passive diffusion.
Data set [15] in a line: Permeability of compound assessed as compound recovery at 10 uM incubated for 4 hrs by PAMPA. As to conditions: read-out: Drug recovery. Type of data set: ADME.
The target in data set [16] is T4, Voltage-gated inwardly rectifying potassium channel KCNH2 (Homo sapiens, UniProt Q12809). The experiment in a line: Inhibition of hERG stably expressed in HEK293 cells by patch-clamp method. Type of data set: toxicity, cell-based.
T4 sequence (Q12809 whole entry): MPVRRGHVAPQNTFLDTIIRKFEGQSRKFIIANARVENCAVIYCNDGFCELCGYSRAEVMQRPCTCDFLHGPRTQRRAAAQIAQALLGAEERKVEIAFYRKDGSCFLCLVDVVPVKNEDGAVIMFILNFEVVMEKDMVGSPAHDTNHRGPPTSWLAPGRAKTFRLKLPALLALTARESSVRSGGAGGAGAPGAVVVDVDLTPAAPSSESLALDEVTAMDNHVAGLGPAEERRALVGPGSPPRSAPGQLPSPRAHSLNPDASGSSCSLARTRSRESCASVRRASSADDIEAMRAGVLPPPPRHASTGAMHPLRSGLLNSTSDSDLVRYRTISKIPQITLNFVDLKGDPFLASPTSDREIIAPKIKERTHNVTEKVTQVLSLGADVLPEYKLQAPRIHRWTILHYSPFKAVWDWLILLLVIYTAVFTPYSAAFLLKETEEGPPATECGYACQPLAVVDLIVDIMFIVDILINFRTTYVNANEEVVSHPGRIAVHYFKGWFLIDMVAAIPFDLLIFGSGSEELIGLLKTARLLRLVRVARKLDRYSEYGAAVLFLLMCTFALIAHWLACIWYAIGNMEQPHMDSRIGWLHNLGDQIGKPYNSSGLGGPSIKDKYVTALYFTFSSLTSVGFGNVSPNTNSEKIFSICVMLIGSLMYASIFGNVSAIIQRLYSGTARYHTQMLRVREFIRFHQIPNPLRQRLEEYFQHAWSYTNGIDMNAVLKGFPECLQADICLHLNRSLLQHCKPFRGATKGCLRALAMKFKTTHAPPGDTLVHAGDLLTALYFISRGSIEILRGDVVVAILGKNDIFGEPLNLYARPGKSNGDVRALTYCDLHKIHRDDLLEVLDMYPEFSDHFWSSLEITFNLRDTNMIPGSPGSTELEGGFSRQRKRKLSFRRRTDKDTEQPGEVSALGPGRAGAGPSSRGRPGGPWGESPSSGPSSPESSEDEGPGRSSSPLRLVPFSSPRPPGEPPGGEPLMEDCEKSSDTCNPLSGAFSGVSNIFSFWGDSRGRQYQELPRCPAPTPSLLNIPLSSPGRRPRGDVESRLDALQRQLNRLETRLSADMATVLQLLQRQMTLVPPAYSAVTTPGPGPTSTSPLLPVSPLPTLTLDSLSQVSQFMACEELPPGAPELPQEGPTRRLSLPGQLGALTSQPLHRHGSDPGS
Data set [17] can be described thus: Stability in SGF at pH 1.5 assessed as half life by LC-MS/MS analysis. Type of data set: physicochemical.
The nature of data set [18]: Stability in SIF at pH 6.8 assessed as half life by LC-MS/MS analysis. In kind it is physicochemical.
The nature of data set [19]: Stability in mouse plasma assessed as half life measured up to 120 mins by LC-MS/MS analysis. In kind it is ADME, cell-free.
The nature of data set [20]: Metabolic stability in human liver microsomes assessed as half life at 10 uM measured up to 60 mins in presence of NADPH by LC-MS/MS analysis. In kind it is ADME, Microsome.
A short description of data set [21]: Metabolic stability in rat liver microsomes assessed as half life at 10 uM measured up to 60 mins in presence of NADPH by LC-MS/MS analysis. Type of data set: ADME, Microsome.
Data set [22] is described as follows: Metabolic stability in mouse liver microsomes assessed as half life at 10 uM measured up to 60 mins in presence of NADPH by LC-MS/MS analysis. In kind it is ADME, Microsome.
The nature of data set [23]: Metabolic stability in human liver microsomes assessed as intrinsic clearance measured per mg protein at 10 uM measured up to 60 mins in presence of NADPH by LC-MS/MS analysis. In kind it is ADME, Microsome. As to conditions: read-out: CLH.
A short description of data set [24]: Metabolic stability in rat liver microsomes assessed as intrinsic clearance measured per mg protein at 10 uM measured up to 60 mins in presence of NADPH by LC-MS/MS analysis. Type of data set: ADME, Microsome. To be noted: read-out: CLH.
Data set [25] in a line: Metabolic stability in mouse liver microsomes assessed as intrinsic clearance measured per mg protein at 10 uM measured up to 60 mins in presence of NADPH by LC-MS/MS analysis. In kind it is ADME, Microsome. As to conditions: read-out: CLH.
Data set [26] can be described thus: Cmax in fasted male C57BL/6J mouse at 10 mg/kg, po measured after 1 hr by LC-MS/MS analysis. In kind it is ADME, organism-based. To be noted: in vivo.
A short description of data set [27]: Drug excretion in fasted male Sprague-Dawley rat at 5 mg/kg, po measured for 24 hrs by LC-MS/MS analysis. Type of data set: ADME, organism-based. As to conditions: in vivo, read-out: Drug excretion.
Data set [28] in a line: Drug excretion in feces of fasted male Sprague-Dawley rat at 5 mg/kg, po measured for 24 hrs by LC-MS/MS analysis. In kind it is ADME, organism-based. As to conditions: faeces, read-out: Drug excretion.
Data set [29] deals with Mus musculus. The experiment in a line: Induction of whole-gut transit in mouse assessed as decrease in time for carmine red dye excretion administered orally via gavage measured for every 5 mins. To be noted: dose 3-15 mg/kg, route po. In kind it is functional, organism-based.
Data set [30] deals with Mus musculus. The experiment in a line: Anti-constipation effect in mouse assessed as decrease in bead expulsion time at 3 to 15 mg/kg, po pretreated with compound 1 hr prior to glass bead insertion into distal colon measured after regaining conscious. To be noted: dose 3-15 mg/kg. Type of data set: functional, organism-based.
Data set [31] concerns Mus musculus. The experiment in a line: Anti-constipation effect in mouse assessed as increase in fecal water content at 3 to 10 mg/kg, po measured after 1 hr. Type of data set: functional, organism-based. As to conditions: dose 3-10 mg/kg.
Data set [32] has as its system Mus musculus. The experiment in a line: Anti-constipation effect in mouse assessed as increase in fecal output at 3 to 10 mg/kg, po measured after 1 hr. Type of data set: functional, organism-based. To be noted: dose 3-10 mg/kg.
Data set [33] has as its target T4, Voltage-gated inwardly rectifying potassium channel KCNH2. Briefly: Inhibition of hERG. Type of data set: toxicity.

SMILES strings stand for the structures. Calls of active or inactive are those of the source. The rule behind the calls is not given here. Some results are limits rather than exact numbers.

Chain of 5-hydroxytryptamine receptor 2A (P28223 whole entry): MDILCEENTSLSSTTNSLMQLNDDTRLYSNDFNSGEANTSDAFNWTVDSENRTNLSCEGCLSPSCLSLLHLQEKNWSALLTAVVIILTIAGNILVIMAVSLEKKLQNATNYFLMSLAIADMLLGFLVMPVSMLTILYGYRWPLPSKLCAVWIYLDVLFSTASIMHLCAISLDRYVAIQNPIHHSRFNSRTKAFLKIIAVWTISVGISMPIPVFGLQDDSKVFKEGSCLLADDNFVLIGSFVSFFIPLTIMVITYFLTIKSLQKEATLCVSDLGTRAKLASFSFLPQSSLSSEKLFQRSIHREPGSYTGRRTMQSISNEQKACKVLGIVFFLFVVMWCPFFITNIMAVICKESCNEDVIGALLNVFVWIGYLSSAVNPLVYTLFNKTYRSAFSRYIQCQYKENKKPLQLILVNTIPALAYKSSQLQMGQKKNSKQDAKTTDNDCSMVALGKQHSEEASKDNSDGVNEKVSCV
Chain of 5-hydroxytryptamine receptor 5A (P47898 whole entry): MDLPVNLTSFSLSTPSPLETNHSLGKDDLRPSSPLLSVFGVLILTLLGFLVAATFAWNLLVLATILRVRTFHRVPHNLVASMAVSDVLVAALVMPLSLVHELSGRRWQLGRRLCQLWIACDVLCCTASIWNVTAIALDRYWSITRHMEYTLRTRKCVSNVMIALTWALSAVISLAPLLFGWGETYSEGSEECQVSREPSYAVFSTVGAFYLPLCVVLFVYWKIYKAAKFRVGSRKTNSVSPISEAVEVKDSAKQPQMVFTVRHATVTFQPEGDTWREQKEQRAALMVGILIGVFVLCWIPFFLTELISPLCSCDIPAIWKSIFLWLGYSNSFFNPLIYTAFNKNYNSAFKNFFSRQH
Chain of 5-hydroxytryptamine receptor 7 (P34969 whole entry, the tested form may be a part): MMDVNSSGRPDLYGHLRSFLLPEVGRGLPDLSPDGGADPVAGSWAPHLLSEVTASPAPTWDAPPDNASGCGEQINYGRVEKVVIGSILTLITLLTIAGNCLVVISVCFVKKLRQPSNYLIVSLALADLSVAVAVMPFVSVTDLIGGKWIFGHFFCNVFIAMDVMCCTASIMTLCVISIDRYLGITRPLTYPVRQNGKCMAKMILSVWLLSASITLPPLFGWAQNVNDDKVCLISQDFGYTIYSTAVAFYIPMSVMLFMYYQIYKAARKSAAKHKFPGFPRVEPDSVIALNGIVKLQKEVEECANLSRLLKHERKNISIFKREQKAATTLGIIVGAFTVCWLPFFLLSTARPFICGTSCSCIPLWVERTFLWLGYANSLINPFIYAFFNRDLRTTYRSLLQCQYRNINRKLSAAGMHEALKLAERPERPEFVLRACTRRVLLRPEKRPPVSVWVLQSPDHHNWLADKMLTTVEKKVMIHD

By EC50 is commonly meant the concentration that produces a half-maximal response. For orientation: Ki means the equilibrium dissociation constant of an inhibitor or competing ligand from its target. High values mean lower affinity, low ones higher affinity. The IC50 is the concentration that inhibits the measured activity by half. Low values mean greater potency, high ones weaker potency. As usually defined, the Papp is a coefficient for how fast a substance crosses the barrier. The half-life is how long it takes for the measured level to halve. Usually Cmax stands for the maximum level reached in the sampled fluid or tissue. Consider `Nc1c(Cl)cc(C(=O)NCC2CCN(CCCCCC(=O)NCCOCCOCCNC(=O)NCCCCNC(=O)NCCOCCOCCNC(=O)CCCCCN3CCC(CNC(=O)c4cc(Cl)c(N)c5c4OCC5)CC3)CC2)c2c1CCO2`, for which, in data set [1], the EC50 was found to be 0.00041 µM. For the same compound, the Efficacy in data set [2] stood at 99.6%. Besides, the affinity in data set [3] corresponds to a Ki of 0.0131 µM. The IC50 in [4] was over 10 µM; in data set [5], over 10 µM; in data set [6], over 1 µM; in [7], over 1 µM; in data set [8], over 10 µM; in data set [9] it was over 10 µM. Also, the 50% inhibitory concentration (IC50) in data set [10] is 25.1 µM; in data set [11] it was over 10 µM; in data set [12], over 1 µM; in data set [13], over 10 µM; in [16], over 100 µM. The Papp at 4 h, 10 µM in data set [14] came out at 31 nm/s. Further, the recovery at 4 h, 10 µM in data set [15] amounted to 83.1%. Further, the half-life in data set [17] is over 24 h; in [18] it was over 24 h; in data set [19] it was 3.06 h. For the same compound, the results for the half-life at 10 µM in [20], in data set [21] and in data set [22] were 0.356 h, 4.62 h and 7.7 h, respectively. In addition, the microsomal CLint at 10 µM was 64.8 µL/min/mg in data set [23], 5 µL/min/mg in data set [24] and 3 µL/min/mg in data set [25]. Besides, the concentration in data set [26] peaked (Cmax) at 8.5 ng/mL. The dose excreted at 24 h in data set [27] and in data set [28] was about 100% in each case. Also, the results for the Activity entry in the data set with Mus musculus [29], in the data set with Mus musculus [31] and with Mus musculus [32] were “Dose-dependent-effect; Superior To Prucalopride Succinate At 10 Mg/Kg”, “Active; Efficacy Comparable To Prucalopride Succinate At 10 Mg/Kg” and “Active; Efficacy Comparable To Prucalopride Succinate At 10 Mg/Kg”, respectively. Moreover, in the data set on Mus musculus [30], the result was Active.

The compound `COCCCN1CCC(NC(=O)c2cc(Cl)c(N)c3c2OCC3)CC1` [PRUCALOPRIDE] gave an IC50 in [33] of 4.1 µM. For the same compound, the Efficacy in data set [2] was found to be 110%. Also, the Papp at 4 h, 10 µM in data set [14] was under 0.185 nm/s. In [15], the recovery at 4 h, 10 µM stood at 92.4%.

As for `Nc1c(Cl)cc(C(=O)NC2CCN(CCC(=O)NCCOCCOCCNC(=O)NCCCCNC(=O)NCCOCCOCCNC(=O)CCN3CCC(NC(=O)c4cc(Cl)c(N)c5c4OCC5)CC3)CC2)c2c1CCO2`, the EC50 in data set [1] came to 0.00646 µM. The Efficacy in [2] turned out to be 112%. In data set [3], this compound displayed a Ki of 0.197 µM.

On to `Nc1c(Cl)cc(C(=O)NC2CCN(CCCC(=O)NCCOCCNC(=O)NCCOCCNC(=O)CCCN3CCC(NC(=O)c4cc(Cl)c(N)c5c4OCC5)CC3)CC2)c2c1CCO2`, for which, in data set [1], the EC50 is 0.00033 µM. For the same compound, in data set [2], the Efficacy was determined as 88.6%. The compound also registered a Ki in data set [3] of 0.075 µM.
